# Experimental data reported in patent publication US20080020981A1, “Non-nucleoside reverse transcriptase inhibitors” (Roche Palo Alto LLC, priority 2006, published 2008).
# Structures can show the parent of a compound that is named as a salt. Where two headings read alike, the source gives them in different places.
# Columns and labels:
# [1] = target: T1, HIV-RT enzyme (HIV-1 reverse transcriptase) (Human immunodeficiency virus type 1 group M subtype B, UniProt P03366); test: HIV-1 Reverse Transcriptase Assay Inhibitor IC50 Determination (RNA-dependent DNA polymerase activity, SPA); format: biochemical
# T1 construct: Reactions were initiated by the addition of 30 μl of the HIV-RT enzyme
# Description: HIV-1 Reverse Transcriptase Assay Inhibitor IC50 Determination
# RNA-dependent DNA polymerase activity was measured using a biotinylated primer oligonucleotide and tritiated dNTP substrate. Newly synthesized DNA was quantified by capturing the biotinylated primer molecules on streptavidin coated Scintillation Proximity Assay (SPA) beads (Amersham). […] The biotinylated DNA primer was obtained from the Integrated DNA Technologies Inc. and the RNA template was synthesized by Dharmacon. […] Reactions were initiated by the addition of 30 μl of the HIV-RT enzyme (final concentrations of […]). Protein concentrations were adjusted to provide linear product formation for at least 30 min of incubation. After incubation at 30° for 30 min, the reaction was quenched by addition of 50 μl of 200 mM EDTA (pH 8.0) and 2 mg/ml SA-PVT SPA beads (Amersham, RPNQ0009, reconstituted in 20 mM Tris-HCl, pH 8.0, 100 mM EDTA and 1% BSA). The beads were left to settle overnight and the SPA signals were counted in a 96-well top counter-NXT (Packard). IC50 values were obtained by sigmoidal regression analysis using GraphPad Prism 3.0 (GraphPad Software, Inc.).
# [2] = RNA-dependent DNA polymerase activity, SPA, 30 min at 30°, read-out: HIV-RT IC50
Molecule,"IC50 [1, 2] [nM]",melting point [°C],IC50 [1] [nM]
2-[3-(3-Chloro-5-cyano-phenoxy)-4-cyclopropyl-2-fluoro-phenoxy]-N-(2-chloro-4-sulfamoyl-phenyl)-acetamide [I-9],7.7,,
"2-[4-Bromo-3-(3-chloro-5-cyano-phenoxy)-2-fluoro-phenoxy]-N-[2-chloro-4-(2,4-dioxo-imidazolidin-1-yl)-phenyl]-acetamide [I-30]",15.5,,
"2-[4-Chloro-3-(3,5-dicyano-phenoxy)-2-fluoro-phenoxy]-N-(2-methyl-4-sulfamoyl-phenyl)-acetamide [I-14]",6.4,,
CCC(=O)NS(=O)(=O)c1ccc(NC(=O)COc2ccc(Br)c(Oc3cc(Cl)cc(C#N)c3)c2F)c(Cl)c1 (as salt: Na) [I-23],,261 to 264,
CCC(=O)NS(=O)(=O)c1ccc(NC(=O)COc2ccc(Br)c(Oc3cc(Cl)cc(C#N)c3)c2F)c(C)c1 (as salt: Na) [I-24],,268.1 to 270,
"N#Cc1cc(Cl)cc(Oc2c(Cl)ccc(OCC(=O)Nc3ccc(S(N)(=O)=O)cc3Cl)c2F)c1 [I-1, 2-[4-Chloro-3-(3-chloro-5-cyano-phenoxy)-2-fluoro-phenoxy]-N-(2-chloro-4-sulfamoyl-phenyl)-acetamide]",16.2,233.3 to 247.6,
Cc1cc(S(N)(=O)=O)ccc1NC(=O)COc1ccc(Cl)c(Oc2cc(Cl)cc(C#N)c2)c1F [I-2],12.8,209.9 to 212,
"Cc1cc(S(N)(=O)=O)ccc1NC(=O)COc1ccc(Br)c(Oc2cc(Cl)cc(C#N)c2)c1F [I-4, 2-[4-Bromo-3-(3-chloro-5-cyano-phenoxy)-2-fluoro-phenoxy]-N-(2-methyl-4-sulfamoyl-phenyl)-acetamide]",6.5,226 to 228.8,
N#Cc1cc(Cl)cc(Oc2c(Br)ccc(OCC(=O)Nc3ccc(S(N)(=O)=O)cc3Cl)c2F)c1 [I-5],18.7,250.9 to 252.3,
"CCc1ccc(OCC(=O)Nc2ccc(S(N)(=O)=O)cc2C)c(F)c1Oc1cc(Cl)cc(C#N)c1 [I-6, 2-[3-(3-Chloro-5-cyano-phenoxy)-4-ethyl-2-fluoro-phenoxy]-N-(2-methyl-4-sulfamoyl-phenyl)-acetamide]",8.4,188 to 189.6,
CCc1ccc(OCC(=O)Nc2ccc(S(N)(=O)=O)cc2Cl)c(F)c1Oc1cc(Cl)cc(C#N)c1 [I-7],> 10000,,
N#Cc1cc(Cl)cc(Oc2c(C3CC3)ccc(OCC(=O)Nc3ccc(S(N)(=O)=O)cc3Cl)c2F)c1 [I-8],18.3,210 to 211,
N#Cc1cc(Cl)cc(Oc2cc(OCC(=O)Nc3ccc(S(N)(=O)=O)cc3Cl)ccc2Cl)c1 [I-10],7.4,217 to 219,
COc1cc(C#N)cc(Oc2c(Cl)ccc(OCC(=O)Nc3ccc(S(N)(=O)=O)cc3C)c2F)c1 [I-11],3.1,122 to 123.2,
COc1cc(C#N)cc(Oc2c(Cl)ccc(OCC(=O)Nc3ccc(S(N)(=O)=O)cc3Cl)c2F)c1 [I-12],8.2,211 to 212,
Cc1cc(S(N)(=O)=O)ccc1NC(=O)COc1ccc(Cl)c(Oc2cc(C#N)cc(C#N)c2)c1F [I-13],3.8,264.5 to 265.2,
"Cc1cc(S(N)(=O)=O)ccc1NC(=O)COc1ccc(Cl)c(Oc2cc(Cl)cc(C#N)c2)c1 [I-15, 2-[4-Chloro-3-(3-chloro-5-cyano-phenoxy)-phenoxy]-N-(2-methyl-4-sulfamoyl-phenyl)-acetamide]",6.5,,
COc1cc(C#N)cc(Oc2c(Br)ccc(OCC(=O)Nc3ccc(S(N)(=O)=O)cc3C)c2F)c1 [I-16],5.1,220 to 223.3,
COc1cc(C#N)cc(Oc2c(Br)ccc(OCC(=O)Nc3ccc(S(N)(=O)=O)cc3Cl)c2F)c1 [I-17],12.6,213.9 to 217.9,
Cc1cc(S(N)(=O)=O)ccc1NC(=O)COc1ccc(Cl)c(Oc2cc(Br)cc(C#N)c2)c1F [I-18],6.6,234.9 to 236.6,
N#Cc1cc(Br)cc(Oc2c(Cl)ccc(OCC(=O)Nc3ccc(S(N)(=O)=O)cc3Cl)c2F)c1 [I-19],14.9,242.2 to 244.9,
"CCc1cc(C#N)cc(Oc2c(Cl)ccc(OCC(=O)Nc3ccc(S(N)(=O)=O)cc3Cl)c2F)c1 [I-20, 2-[4-Chloro-3-(3-cyano-5-ethyl-phenoxy)-2-fluoro-phenoxy]-N-(2-chloro-4-sulfamoyl-phenyl)-acetamide]",31.7,,
N#Cc1cc(C#N)cc(Oc2c(Br)ccc(OCC(=O)Nc3ccc(S(N)(=O)=O)cc3Cl)c2F)c1 [I-21],19.1,255 to 257,
CCC(=O)NS(=O)(=O)c1ccc(NC(=O)COc2ccc(Br)c(Oc3cc(Cl)cc(C#N)c3)c2F)c(Cl)c1 [I-23],4.8,,
CCC(=O)NS(=O)(=O)c1ccc(NC(=O)COc2ccc(Br)c(Oc3cc(Cl)cc(C#N)c3)c2F)c(C)c1 [I-24],5.7,,
N#Cc1cc(Oc2c(Cl)ccc(OCC(=O)Nc3ccc(S(N)(=O)=O)cc3Cl)c2F)cc(C2CC2)c1 [I-26],66.5,219 to 221,
"N#Cc1cc(Cl)cc(Oc2c(Cl)ccc(OCC(=O)Nc3ccc(C(=O)O)cc3Cl)c2F)c1 [I-27, 3-Chloro-4-{2-[4-chloro-3-(3-chloro-5-cyano-phenoxy)-2-fluoro-phenoxy]-acetylamino}-benzoic acid]",6.1,,
"Cc1cc(C(N)=O)ccc1NC(=O)COc1ccc(Br)c(Oc2cc(Cl)cc(C#N)c2)c1F [I-28, 4-{2-[4-Bromo-3-(3-chloro-5-cyano-phenoxy)-2-fluoro-phenoxy]-acetylamino}-3-methyl-benzamide]",6.9,250.6 to 252.5,
"CC(C)(O)C#Cc1ccc(NC(=O)COc2ccc(Br)c(Oc3cc(Cl)cc(C#N)c3)c2F)c(Cl)c1 [I-31, 2-[4-Bromo-3-(3-chloro-5-cyano-phenoxy)-2-fluoro-phenoxy]-N-[2-chloro-4-(3-hydroxy-3-methyl-but-1-ynyl)-phenyl]-acetamide]",,,82.1
"CC(C)(N)C#Cc1ccc(NC(=O)COc2ccc(Cl)c(Oc3cc(Cl)cc(C#N)c3)c2F)c(Cl)c1 [I-32, N-[4-(3-Amino-3-methyl-but-1-ynyl)-2-chloro-phenyl]-2-[4-chloro-3-(3-chloro-5-cyano-phenoxy)-2-fluoro-phenoxy]-acetamide]",21.4,,
